Laboratory results taken from patent US20050112163A1, “PEST CONTROLLER AMD METHOD FOR CONTROLLING PESTS THEREWITH” (priority 2002, published 2005).

Assay: Vapor pressure by Donovan method
Type: physicochemical
Details: at 25° C. by Donovan method
Procedure: Donovan method is a method reported by a person in New method for estimating vapor pressure by the use of gas chromatography: Journal of Chromatography A. 749, pp. 123-129 (1996).
Test pest controllers (a) and (b) were made by the pest controller 1 shown in FIG. 2 with chemical substance 22 containing compound (A) (2,3,5,6-tetrafluoro-4-methoxymethylbenzyl 3-(1-propenyl)-2,2-dimethylcyclopropanecarboxylate, the vapor pressure at 25° C. by Donovan method: 1.4×10^−5 mmHg) as an active ingredient.

CC=CC1C(C(=O)OCc2c(F)c(F)c(COC)c(F)c2F)C1(C)C (stereo not shown) [compound (A), 2,3,5,6-tetrafluoro-4-methoxymethylbenzyl 3-(1-propenyl)-2,2-dimethylcyclopropanecarboxylate]
vapor pressure: 1.4×10^−5 mmHg
